Tests used:
HRV2 [1] = experiment: Cell Titer 96 cell proliferation assay, viability of HRV2-infected HeLa cells; type: cell-based, human rhinovirus; conditions: for viability of infected cells: HeLa cells, HRV2 20 TCID50/cell, 24 hours after infection, even slight concentrations; for protective effect during viral proliferation: determined as described in Example 3, HRV2-infected HeLa cells
Text: A cell proliferation assay was done to test the effect of PDTC or DDTC on the viability of the cells during a viral infection.

mengovirus virions = conditions: Calvert, Interferon Research 1990; cited from earlier work
HeLa cells = experiment: Cell proliferation assay on uninfected HeLa cells (toxicity control); conditions: for toxicity of the concentration used to inhibit the viral infections: HeLa cells; for effects on uninfected cells (viability): compound alone, uninfected HeLa cells
HRV2 [2] = experiment: Crystal violet staining of cell lawn of HRV2-infected HeLa cells; type: cell-based, human rhinovirus; conditions: HRV2 100 TCID50 per cell, compound added 1 hour after infection, stained after 24 hours
respiratory RNA viruses = experiment: Action of antioxidants against respiratory RNA viruses (summary statement); type: cell-based
influenza virus [3] = conditions: Knobil et al., Am. J. Physiol. 1998; cited from earlier work
[4] = system: HRV serotypes 1A, 2, 14 and 16; experiment: Virus progeny titer (TCID50 test) in supernatants of HRV-infected HeLa cells; type: cell-based, human rhinovirus; conditions: 20 TCID50 per cell, PDTC 125 μm
Description: PDTC was added after infection of cells with various HRV serotypes to test the effectiveness during infections by HRV. HeLa cells were infected with HRV serotypes 1A, 2, 14 and 16 with 20 TCID50 (tissue culture infectious dose 50) per cell. PDTC was added at the same time to a concentration of 125 μm in the medium. Excess virus was removed 4 hours after infection, while PDTC was added to the fresh medium. 24 hours (FIG. 1, top) and 48 hours (FIG. 1, bottom) after the infection (p. I.), the supernatants were collected and the amount of virus progeny was determined by TCID50 tests. Treatment of cells with PDTC reduced the virus titer (vt) by 10^3 after 24 hours (FIG. 1, top).

[5] = system: HRV2, HRV14, HRV1A and HRV16; experiment: HRV-induced cytopathic effects (morphology) in HeLa cells; type: cell-based, human rhinovirus
Description: Morphological changes in the cells, called “cytopathic effects” (CPE) occur in the late stages of a rhinoviral infection. These HRV induced CPE are characterized as cell rounding, shrinkage, deformation of the nucleus and chromatin condensation. When HeLa cells are infected with HRV2, HRV14, HRV1A and HRV16 at 100 TCID50 per cell, a distinct cytopathic effect is visible after 8 hours post-infection.

[6] = system: HRC serotypes 1A, 2, 14 and 16; experiment: Time of addition, proliferation assay of HRV-infected cells; type: cell-based, human rhinovirus; conditions: PDTC 125 μM, 20 TCID50 per cell
Description: To determine the stage of the viral life cycle attacked by PDTC, PDTC was added at various times following virus infection with 20 TCID50 per cell, and proliferation assays were done. […] This effect is also not specific for a single serotype, as HRC serotypes 1A, 2, 14 and 16 were used. Only PDTC treatment (125 μM) of the cells more than 8 hours after infection reduced the protective effect.

HRV2 [7] = experiment: Time of addition, viral titers in supernatants of HRV2-infected cells; type: cell-based, human rhinovirus
Description: Similar results were obtained if the viral titers (vt) were determined in the supernatants of infected and PDTC-treated cells (see FIG. 4B). Addition of PDTC up to four hours after infection reduced the titer of the HRV2 produced by 10^3.

eIF4GI = experiment: Western blot of eIF4GI splitting by viral 2A protease in HRV2-infected HeLa cells; type: cell-based, human rhinovirus; conditions: HRV2 100 TCID50 per cell
Description: Various proteolytic activities were determined to examine the course of a rhinoviral infection in the presence and absence of PDTC. Enzymatic splitting of the cellular translation initiation factors 4GI (eIF4GI) and 4GII by viral 2A protease, ending host cell protein synthesis, is one characteristic proteolytic activity that occurs in the course of infection with rhinoviruses and enteroviruses. Depending on the HRV serotype, eIF4G proteins are split in an early stage of infection. Another splitting activity during a rhinoviral infection, only recently described, is splitting of the intermediary filament protein cytokeratin 8. This splitting also depends on the 2A protease, but occurs at a later stage of the infection. In order to investigate the effect of a PDTC treatment on the course of a virus infection, a Western blot analysis was done to analyze these 2A protease substrates.
Medium was removed at the indicated times for the Western blot analysis. The cells were lysed by adding 100 μl of protein buffer (8% sodium dodecyl sulfate, 20% β-mercapto-ethanol, 20% glycerol, 0.04% bromphenol blue). 20 μl protein extract was separated by SDS-PAGE on each track, and blotted onto PVDF membranes. […] The molecular weights were determined by using a prestained SDS-7B marker (Sigma).
Splitting of eIF4GI can be detected 4 hours after infection in HeLa cells infected with HRV2 (100 TCID50 per cell). […]

[8] = system: rhinoviral proteins VP1, VP2 and VP3; experiment: Western blot of HRV2 capsid proteins in infected HeLa cells; type: cell-based, human rhinovirus; conditions: HRV2 100 TCID50 per cell
Text: To determine the effect of PDTC on the expression of viral proteins, capsid proteins of HRV2 were detected by Western blot analysis in protein extracts from HRV2-infected HeLa cells (100 TCID50 per cell) (see FIG. 6). The Western blot analysis was done as described above in Example 5, with use of a polyclonal rabbit antiserum against HRV2. Significant amounts of the rhinoviral proteins VP1, VP2 and VP3 were detected in untreated cells six hours after infection.

A/PR8/34 = experiment: microbe, parasite or virus in culture; type: cell-based, influenza A virus; conditions: 4 days
A/Vienna/47/96 = experiment: microbe, parasite or virus in culture; type: cell-based, influenza A virus; conditions: 4 days
[9] = system: influenza A/PR8/34 and influenza A/Vienna/47/96; experiment: microbe, parasite or virus in culture; type: cell-based, influenza A virus
influenza virus [10] = experiment: Mice inoculated intranasally with lethal dose of influenza virus, intranasal treatment; type: in vivo, C57/BL6 mice; conditions: 25 μl 600 mM PDTC intranasally
Description: Ten C57/BL6 mice were inoculated intranasally with a lethal dose (50 μl 10^7 pfU). One hour later, they were treated intranasally with 25 μl 600 mM PDTC or with 25 μl PBS. The mice were examined and treated every 12 hours for the first 48 hours and then every 24 hours. The weights of the mice were determined and reported in % of the initial weight (% w) (FIG. 11A). […] All the mice treated with PBS (diamonds) died within 12 days after the infection (% s=% surviving).

[11] = system: equine rhinitis A virus (ERAV); type: cell-based; conditions: vero cells, 10 TCID50 ERAV per cell, PDTC 1 mM-50 μM, 24 hours after infection
Description: The reduction of ERAV viral propagation by addition of PDTC was investigated as follows: vero cells were infected with 10 TCID50 ERAV per cell. At the same time, PDTC was added at different concentrations (1 mM-50 μM). The inoculum was removed 4 hours after infection, and fresh medium with PDTC was added. The supernatants were removed 24 hours after the infection, and the viral titers were determined in a standard plate assay.

FMV virus O-Manisa [12] = experiment: microbe, parasite or virus in culture; type: cell-based, foot and mouth disease virus
FMV virus O-Manisa [13] = type: cell-based, foot and mouth disease virus; conditions: IB-RS-2 cells, 0.001 TCID50 per cell, PDTC up to 200 μM, 24 hours after infection
FSME virus (Neudörfel) = experiment: FSME virus proliferation in suspended cells; type: cell-based; conditions: same concentrations, 0.975 to 1000 μM
Description: Similarly, we investigated whether PDTC can affect virus proliferation in suspended cells. The same concentrations as above were tested.

EMC virus = experiment: Mice infected intraperitoneally with EMC virus, intraperitoneal treatment; type: in vivo, C57B16 mice; conditions: 50 μl of 50 mM PDTC per day i.p.
Description: C57B16 mice were infected intraperitoneally with 10 TCID50 of EMC virus. Then, the control group was treated intraperitoneally once daily with PBS. Two other groups were treated with 50 μl of 50 mM PDTC per day. Treatment of one group (PDTC) was started simultaneously with the infection, while treatment of the other group (PDTC 24 hpi) was started only 24 hours after the infection.

BHK-21 cells = conditions: PDTC 0.975 to 1000 μM, 4 days at 37° C.
[14] = system: human immunodeficiency virus; conditions: asymptomatic and minimally symptomatic HIV patients, HIV87 Study Group 1993; cited from earlier work

CCN(CC)C(=S)S [DDTC, N, N-diethyldithiocarbamate]
viability of infected cells (HRV2 [1]): significantly increased
action on mengovirus virions (mengovirus virions): inactivates mengovirus virions
toxicity of the concentration used to inhibit the viral infections (HeLa cells): exhibits no toxicity
effects on uninfected cells (viability) (HeLa cells): only minor effects on uninfected cells

CC(=O)N[C@@H](CS)C(=O)O [NAC, N-acetylcysteine, reference compound]
prevention of destruction of the cell lawn by HRV2 infection (HRV2 [2]): not
action against respiratory RNA viruses (respiratory RNA viruses): no action at all
inhibition of influenza virus infection or replication (influenza virus [3]): neither NAC nor PDTC inhibits influenza virus infection or replication

S=C(S)N1CCCC1 [PDTC, pyrrolidine dithiocarbamate]
reduction of the virus titer (vt) ([4]; supernatants 24 hours after infection): 10^3
virus titer in supernatants ([4]; supernatants 48 hours after infection): significant reduction of the virus titer
morphology of infected cells ([5]; 125 μM PDTC, 8 hours after the infection): cannot be distinguished from the morphology of non-infected (n. i.) cells
appearance of cytopathic effects ([5]; HeLa cells, 100 TCID50 per cell, PDTC added during the infection): prevents the appearance of these cytopathic effects
viability of infected cells (HRV2 [1]): significantly increased
time of PDTC treatment after infection at which the protective effect was reduced [6]: more than 8 hours
time of addition offering the best protection against virus induced loss of proliferation [6]: within the first six hours after infection
viral titers produced (HRV2 [7]; PDTC treatment started only 6 hours after infection): significantly reduced
reduction of the titer of the HRV2 produced (HRV2 [7]; addition of PDTC up to four hours after infection): 10^3
splitting of eIF4GI (eIF4GI; 4 and 8 hours after infection): No splitting of eIF4GI can be detected
splitting of eIF4GI (eIF4GI; about 24 hours after infection): slight eIF4GI splitting can be detected
expression of VP1, VP2 and VP3 ([8]; about 24 hours after infection): Weak expression
expression of capsid proteins VP1, VP2 and VP3 ([8]; within the first 8 hours after infection): prevented expression of those capsid proteins
prevention of destruction of the cell lawn by HRV2 infection (HRV2 [2]): can prevent that effect
inhibition at 1200 µM (A/PR8/34; Influenza A virus, PR8, 96 h, PDTC 1200 μM, read-out: inhibition (TCID50 assay)): > 99.9%
reduction of TCID50 (A/PR8/34; PDTC 300 μM): 76.4%
inhibition at 1200 µM (A/Vienna/47/96; Influenza A virus, 96 h, PDTC 1200 μM, read-out: inhibition (TCID50 assay)): > 99.9%
reduction of TCID50 (A/Vienna/47/96; PDTC 300 μM): 82.2%
EC50 ([9]; Influenza A virus, PR8, Vero, 96 h, read-out: PDTC concentration for 50% reduction of positive wells): 50 to 100 µM
PDTC concentration for complete inhibition of cytopathic effects ([9]; all viruses, vero cells): 600 µM
weight of infected mice (influenza virus [10]; 7 days after the infection): gained weight
survival of infected mice (influenza virus [10]; from one hour after lethal inoculation): all the mice treated with PDTC (squares) survived the virus infection
virus titer (vt) in the supernatant in comparison to untreated cells [11]: decreases
protection against the cytopathic effect of the virus (FMV virus O-Manisa [12]; 600 μM PDTC, IB-RS-2 cells, 0.1 TCID50 per cell, 24 hours): 100%
EC50 (FMV virus O-Manisa [12]; Foot-and-mouth disease virus, 24 h, read-out: concentration range for 50% reduction of infected wells): 75 to 150 µM
reduction of virus titer compared with the control sample (FMV virus O-Manisa [13]): more than 2 log steps
reduction of virus proliferation in suspended cells (FSME virus (Neudörfel)): no indication of reduction of virus proliferation
changes of the mouse weights after the beginning of the infection (EMC virus; started with infection or 24 hours after): no difference in treated and untreated mice
average time to death for the infected mice (EMC virus; every group: PBS, PDTC, PDTC 24 hpi): 5.5 days
toxic effects on cell monolayer (microscopic examination) (BHK-21 cells): no indications of toxic effects
inhibition of influenza virus infection or replication (influenza virus [3]): neither NAC nor PDTC inhibits influenza virus infection or replication
toxicity of the concentration used to inhibit the viral infections (HeLa cells): exhibits no toxicity
effects on uninfected cells (viability) (HeLa cells): only minor effects on uninfected cells

Cc1c(C)c2c(c(C)c1O)CCC(C)(C(=O)O)O2 (centres unmarked) [Trolox]
protective effect during viral proliferation (HRV2 [1]): none of these antioxidants had any protective effect

O=C1O[C@H]([C@@H](O)CO)C(O)=C1O [Vitamin C]
protective effect during viral proliferation (HRV2 [1]): none of these antioxidants had any protective effect
action against respiratory RNA viruses (respiratory RNA viruses): no action at all

CCN(CC)C(=S)S [dithiocarb]
cure or improvement of AIDS patients [14]: does not cause cure or improvement of the patients

OCCS [β-mercaptoethanol]
protective effect during viral proliferation (HRV2 [1]): none of these antioxidants had any protective effect
action against respiratory RNA viruses (respiratory RNA viruses): no action at all

Vitamin E
action against respiratory RNA viruses (respiratory RNA viruses): no action at all

From patent US7282599B2, “Dithiocarbamate antiviral agents and methods of using same” (Avir Green Hills Biotechnology Research Devlopment Trade AG, priority 2001, dated 2007)
